Our source for the EC50 and Emax values is US7977322B2 (Vertex Pharmaceuticals Incorporated, priority 2004, dated 2011).

The test concerns the target T1, ΔF508-CFTR (Homo sapiens, UniProt P13569, DEL508-508).
T1 construct: expressed in transfected cells
Kind of test: Membrane potential optical (FRET/VIPR) assay, identification of correction compounds. Particulars: Table 3, assay not given; for Emax: read-out: % Activity / % Efficacy (relative efficacy). Format: cell-based. Summed up:
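NIH3T3 mouse fibroblasts stably expressing ΔF508-CFTR were exposed to compound for 16 h at 37° C in serum-free medium, then loaded with DiSBAC2(3)/CC2-DMPE. After addition of 10 μM forskolin plus 20 μM genistein in Cl⁻-free gluconate bath (pH 7.4), depolarization from Cl⁻ efflux was read by FRET (VIPR II).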

T1 sequence (P13569 with tags, fused parts or gaps DEL508-508): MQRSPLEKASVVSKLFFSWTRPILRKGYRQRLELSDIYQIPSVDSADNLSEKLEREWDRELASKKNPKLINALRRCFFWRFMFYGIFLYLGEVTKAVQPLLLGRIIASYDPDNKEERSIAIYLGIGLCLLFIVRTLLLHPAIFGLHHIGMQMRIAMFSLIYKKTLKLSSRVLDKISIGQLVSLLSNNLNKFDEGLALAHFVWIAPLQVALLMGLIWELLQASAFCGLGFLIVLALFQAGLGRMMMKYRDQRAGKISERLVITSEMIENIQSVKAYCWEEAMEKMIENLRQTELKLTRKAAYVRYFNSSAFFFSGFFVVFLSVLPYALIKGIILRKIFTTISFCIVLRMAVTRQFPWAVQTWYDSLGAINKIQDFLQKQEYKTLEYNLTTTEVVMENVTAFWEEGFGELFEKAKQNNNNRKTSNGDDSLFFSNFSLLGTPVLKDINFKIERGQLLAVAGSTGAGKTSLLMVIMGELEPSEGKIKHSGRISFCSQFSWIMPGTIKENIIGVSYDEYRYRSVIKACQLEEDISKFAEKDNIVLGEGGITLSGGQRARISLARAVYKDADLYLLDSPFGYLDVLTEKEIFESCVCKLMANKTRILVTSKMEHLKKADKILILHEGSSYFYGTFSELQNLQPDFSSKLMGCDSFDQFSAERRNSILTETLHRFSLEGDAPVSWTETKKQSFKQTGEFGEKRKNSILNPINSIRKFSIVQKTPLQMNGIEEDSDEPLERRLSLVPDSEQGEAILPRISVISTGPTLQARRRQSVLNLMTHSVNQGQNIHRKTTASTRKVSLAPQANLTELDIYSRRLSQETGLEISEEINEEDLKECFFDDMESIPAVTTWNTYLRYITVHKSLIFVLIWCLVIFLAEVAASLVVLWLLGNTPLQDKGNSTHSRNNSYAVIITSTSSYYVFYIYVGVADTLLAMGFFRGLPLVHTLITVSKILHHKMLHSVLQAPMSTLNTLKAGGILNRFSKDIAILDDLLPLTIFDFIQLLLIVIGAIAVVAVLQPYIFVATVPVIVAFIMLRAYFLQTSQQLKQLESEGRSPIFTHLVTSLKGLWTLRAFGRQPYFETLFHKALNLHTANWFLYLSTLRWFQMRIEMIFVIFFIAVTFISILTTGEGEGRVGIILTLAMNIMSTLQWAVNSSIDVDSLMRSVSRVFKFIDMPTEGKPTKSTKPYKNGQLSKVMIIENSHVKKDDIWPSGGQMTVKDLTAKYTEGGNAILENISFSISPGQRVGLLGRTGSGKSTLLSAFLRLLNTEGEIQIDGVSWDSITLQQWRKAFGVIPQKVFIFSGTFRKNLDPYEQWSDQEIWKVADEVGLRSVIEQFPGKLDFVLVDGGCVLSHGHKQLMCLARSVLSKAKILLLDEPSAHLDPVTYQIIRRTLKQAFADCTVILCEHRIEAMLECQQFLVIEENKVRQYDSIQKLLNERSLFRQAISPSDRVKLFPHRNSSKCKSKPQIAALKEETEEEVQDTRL

Broadly, the EC50 is the concentration at which the effect is half-maximal. Regarding `O=C(Nc1ncc(C(NCCN2CCCC2)c2ccccc2Cl)s1)C1(c2ccc3c(c2)OCO3)CC1` (stereo not drawn) [Example 406], the EC50 is below 10 µM and the Emax lay within 25 to 100%. Taken in the same sequence, the figures for `O=C1NOC[C@@H]1NC(c1cnc(NC(=O)C2(c3ccc4c(c3)OCO4)CC2)s1)c1ccccc1Cl` (stereo partly drawn) [Example 407] were 10 to 25 µM and 25 to 100%. Taken in the same sequence, the figures for `O=C(Nc1ncc(C(NCCCn2ccnc2)c2ccccc2Cl)s1)C1(c2ccc3c(c2)OCO3)CC1` (stereo not drawn) [Example 408] were below 10 µM and 25 to 100%. Taken in the same sequence, the figures for `O=C(Nc1ncc(C(NCC2CCCCC2)c2ccccc2Cl)s1)C1(c2ccc3c(c2)OCO3)CC1` (stereo not drawn) [Example 409] were below 10 µM and above 100%. On to `CCN(CCO)C(c1cnc(NC(=O)C2(c3ccc4c(c3)OCO4)CC2)s1)c1ccccc1Cl` (stereo not drawn) [Example 410], for which the EC50 was below 10 µM and the Emax was above 100%. The matching figures for `O=C(Nc1ncc(C(NC2CCCCC2)c2ccccc2Cl)s1)C1(c2ccc3c(c2)OCO3)CC1` (stereo not drawn) [Example 411]: below 10 µM and above 100%. Taken in the same sequence, the figures for `O=C(Nc1ncc(C(NCc2ccco2)c2ccccc2Cl)s1)C1(c2ccc3c(c2)OCO3)CC1` (stereo not drawn) [Example 412] were below 10 µM and above 100%. The matching figures for `CN(C1CCCCC1)C(c1cnc(NC(=O)C2(c3ccc4c(c3)OCO4)CC2)s1)c1ccccc1Cl` (stereo not drawn) [Example 413]: below 10 µM and above 100%.

Regarding `O=C(Nc1ncc(C(NC2CCCC2)c2ccccc2Cl)s1)C1(c2ccc3c(c2)OCO3)CC1` (stereo not drawn) [Example 414], the EC50 was below 10 µM and the Emax is above 100%. The matching figures for `O=C(Nc1ncc(C(NC2CC2)c2ccccc2Cl)s1)C1(c2ccc3c(c2)OCO3)CC1` (stereo not drawn) [Example 415]: below 10 µM and above 100%. Taken in the same sequence, the figures for `O=C(Nc1ncc(C(NCCO)c2ccccc2Cl)s1)C1(c2ccc3c(c2)OCO3)CC1` (stereo not drawn) [Example 416] were below 10 µM and above 100%. The matching figures for `O=C(Nc1ncc(C(NC2CCC2)c2ccccc2Cl)s1)C1(c2ccc3c(c2)OCO3)CC1` (stereo not drawn) [Example 417]: below 10 µM and above 100%.

Turning to `NC(=O)C1CCCN(C(c2cnc(NC(=O)C3(c4ccc5c(c4)OCO5)CC3)s2)c2ccccc2Cl)C1` (stereo not drawn) [Example 418], the concentration giving a half-maximal response (EC50) was below 10 µM and the Emax is above 100%. Taken in the same sequence, the figures for `O=C(Nc1ncc(C(c2ccccc2Cl)N2CC[C@@H](O)C2)s1)C1(c2ccccc2Cl)CC1` (stereo partly drawn) [Example 419] were below 10 µM and above 100%. Consider `COc1ccc(C2(C(=O)Nc3ncc(C(c4ccccc4Cl)N4CC[C@@H](O)C4)s3)CC2)cc1` (stereo partly drawn) [Example 420], for which the EC50 is below 10 µM and the Emax is above 100%. Taken in the same sequence, the figures for `O=C(Nc1ncc(C(c2ccccc2Cl)N2CC[C@@H](O)C2)s1)C1(c2ccc(F)cc2)CC1` (stereo partly drawn) [Example 421] were 10 to 25 µM and above 100%. Taken in the same sequence, the figures for `Cc1ccc(C2(C(=O)Nc3ncc(C(c4ccccc4Cl)N4CC[C@@H](O)C4)s3)CC2)cc1` (stereo partly drawn) [Example 422] were below 10 µM and above 100%. Consider `O=C(Nc1ncc(C(c2ccccc2Cl)N2CC[C@@H](O)C2)s1)C1(c2ccccc2)CC1` (stereo partly drawn) [Example 423], for which the EC50 was below 10 µM and the Emax was above 100%. Taken in the same sequence, the figures for `C[C@@H](CO)NC(c1cnc(NC(=O)C2(c3ccc4c(c3)OCO4)CC2)s1)c1ccccc1Cl` (stereo partly drawn) [Example 424] were below 10 µM and above 100%. In the case of `CCOCCCNC(c1cnc(NC(=O)C2(c3ccc4c(c3)OCO4)CC2)s1)c1ccccc1Cl` (stereo not drawn) [Example 425], the EC50 is below 10 µM and the Emax is 25 to 100%. The matching figures for `CCCN(CCO)C(c1cnc(NC(=O)C2(c3ccc4c(c3)OCO4)CC2)s1)c1ccccc1Cl` (stereo not drawn) [Example 426]: below 10 µM and 25 to 100%. For `O=C(Nc1ncc(C(NCCC2=CCCCC2)c2ccccc2Cl)s1)C1(c2ccc3c(c2)OCO3)CC1` (stereo not drawn) [Example 427], the EC50 was below 10 µM and the Emax is above 100%. As for `CC(C)(C)CCNC(c1cnc(NC(=O)C2(c3ccc4c(c3)OCO4)CC2)s1)c1ccccc1Cl` (stereo not drawn) [Example 428], the EC50 is below 10 µM and the Emax was above 100%. The matching figures for `CC1(C)CC(NC(c2cnc(NC(=O)C3(c4ccc5c(c4)OCO5)CC3)s2)c2ccccc2Cl)CCO1` (stereo not drawn) [Example 429]: below 10 µM and above 100%.

`O=C(Nc1ncc(C(NCCc2ccccn2)c2ccccc2Cl)s1)C1(c2ccc3c(c2)OCO3)CC1` (stereo not drawn) [Example 430]: the EC50 was below 10 µM and the Emax is above 100%.

Take `CC(CO)(CO)NC(c1cnc(NC(=O)C2(c3ccc4c(c3)OCO4)CC2)s1)c1ccccc1Cl` (stereo not drawn) [Example 431]: the EC50 was below 10 µM and the Emax is above 100%. The matching figures for `CCNC(c1cnc(NC(=O)C2(c3ccc4c(c3)OCO4)CC2)s1)c1ccccc1Cl` (stereo not drawn) [Example 432]: below 10 µM and above 100%. Taken in the same sequence, the figures for `O=C(Nc1ncc(C(NC(CO)CO)c2ccccc2Cl)s1)C1(c2ccc3c(c2)OCO3)CC1` (stereo not drawn) [Example 433] were below 10 µM and above 100%. Taken in the same sequence, the figures for `O=C(Nc1ncc(C(NC[C@@H]2CCCO2)c2ccccc2Cl)s1)C1(c2ccc3c(c2)OCO3)CC1` (stereo partly drawn) [Example 434] were below 10 µM and above 100%. Regarding `CCCN(CC1CC1)C(c1cnc(NC(=O)C2(c3ccc4c(c3)OCO4)CC2)s1)c1ccccc1Cl` (stereo not drawn) [Example 435], the EC50 is below 10 µM and the Emax was above 100%. The matching figures for `CC(=O)NCCNC(c1cnc(NC(=O)C2(c3ccc4c(c3)OCO4)CC2)s1)c1ccccc1Cl` (stereo not drawn) [Example 436]: below 10 µM and above 100%. In the case of `C[C@@H](CO)NC(c1cnc(NC(=O)C2(c3ccc4c(c3)OCO4)CC2)s1)c1ccccc1Cl` (stereo partly drawn) [Example 437], the EC50 was below 10 µM. In the case of `CC(C)C[C@H](CO)NC(c1cnc(NC(=O)C2(c3ccc4c(c3)OCO4)CC2)s1)c1ccccc1Cl` (stereo partly drawn) [Example 438], the EC50 is below 10 µM and the Emax was above 100%. In the case of `COCCNC(c1cnc(NC(=O)C2(c3ccc4c(c3)OCO4)CC2)s1)c1ccccc1Cl` (stereo not drawn) [Example 439], the EC50 was below 10 µM and the Emax was above 100%.

In the case of `CC(C)[C@H](CO)NC(c1cnc(NC(=O)C2(c3ccc4c(c3)OCO4)CC2)s1)c1ccccc1Cl` (stereo partly drawn) [Example 440], the EC50 is below 10 µM and the Emax is above 100%. Taken in the same sequence, the figures for `O=C(Nc1ncc(C(c2ccccc2Cl)N2CC[C@@H](O)C2)s1)C1(c2cccc(C(F)(F)F)c2)CC1` (stereo partly drawn) [Example 441] were below 10 µM and 25 to 100%. Turning to `O=C(Nc1ncc(C(c2ccccc2Cl)N2CC[C@@H](O)C2)s1)C1(c2ccccc2C(F)(F)F)CC1` (stereo partly drawn) [Example 442], the EC50 is below 10 µM and the Emax is 25 to 100%. Turning to `COc1ccccc1C1(C(=O)Nc2ncc(C(c3ccccc3Cl)N3CC[C@@H](O)C3)s2)CC1` (stereo partly drawn) [Example 443], the EC50 was below 10 µM and the Emax was in the range of 25 to 100%. Taken in the same sequence, the figures for `Cc1ccccc1C1(C(=O)Nc2ncc(C(c3ccccc3Cl)N3CC[C@@H](O)C3)s2)CC1` (stereo partly drawn) [Example 444] were below 10 µM and above 100%. The matching figures for `O=C(Nc1ncc(C(c2ccccc2Cl)N2CC[C@@H](O)C2)s1)C1(c2ccc(C(F)(F)F)cc2)CC1` (stereo partly drawn) [Example 445]: below 10 µM and above 100%. The matching figures for `O=C(Nc1ncc(C(c2ccccc2Cl)N2CC[C@@H](O)C2)s1)C1(c2cccc(Cl)c2)CC1` (stereo partly drawn) [Example 446]: below 10 µM and above 100%. Turning to `O=C(Nc1ncc(C(c2ccccc2Cl)N2CC[C@@H](O)C2)s1)C1(c2cccc(F)c2)CC1` (stereo partly drawn) [Example 447], the EC50 was below 10 µM and the Emax is above 100%. On to `O=C(Nc1ncc(C(c2ccccc2Cl)N2CC[C@@H](O)C2)s1)C1(c2ccccc2F)CC1` (stereo partly drawn) [Example 448], for which the EC50 was in the range of 10 to 25 µM and the Emax is above 100%.

In the case of `O=C(Nc1ncc(C(c2ccccc2Cl)N2CC[C@@H](O)C2)s1)C1(c2ccc(Cl)cc2)CC1` (stereo partly drawn) [Example 449], the EC50 was below 10 µM and the Emax was above 100%. In the case of `Cc1cccc(C2(C(=O)Nc3ncc(C(c4ccccc4Cl)N4CC[C@@H](O)C4)s3)CC2)c1` (stereo partly drawn) [Example 450], the EC50 was below 10 µM and the Emax is above 100%. With `COc1ccc(C2(C(=O)Nc3ncc(C(c4ccccc4Cl)N4CC[C@@H](O)C4)s3)CC2)cc1OC` (stereo partly drawn) [Example 451], the EC50 is below 10 µM and the Emax is above 100%.

`COc1cccc(C2(C(=O)Nc3ncc(C(c4ccccc4Cl)N4CC[C@@H](O)C4)s3)CC2)c1` (stereo partly drawn) [Example 452]: the EC50 is below 10 µM and the Emax is above 100%. Taken in the same sequence, the figures for `O=C(Nc1ncc(C(Cc2ccccc2Cl)N2CCCC2)s1)C1(c2ccc3c(c2)OCO3)CC1` (stereo not drawn) [Example 453] were below 10 µM and 25 to 100%.

As for `O=C(Nc1ncc(C(Cc2ccccc2Cl)N2CCCCC2)s1)C1(c2ccc3c(c2)OCO3)CC1` (stereo not drawn) [Example 454], the EC50 is below 10 µM and the Emax is above 100%. The matching figures for `COC[C@H]1CCCN1C(Cc1ccccc1Cl)c1cnc(NC(=O)C2(c3ccc4c(c3)OCO4)CC2)s1` (stereo partly drawn) [Example 455]: below 10 µM and above 100%. The matching figures for `COC[C@@H]1CCCN1C(Cc1ccccc1Cl)c1cnc(NC(=O)C2(c3ccc4c(c3)OCO4)CC2)s1` (stereo partly drawn) [Example 456]: below 10 µM and above 100%.

For `CN(C)C(Cc1ccccc1Cl)c1cnc(NC(=O)C2(c3ccc4c(c3)OCO4)CC2)s1` (stereo not drawn) [Example 457], the EC50 is below 10 µM and the Emax was above 100%.

`NC(=O)C1CCCN1C(Cc1ccccc1Cl)c1cnc(NC(=O)C2(c3ccc4c(c3)OCO4)CC2)s1` (stereo not drawn) [Example 458]: the EC50 was below 10 µM and the Emax was above 100%.
